# Data as given in PubChem BioAssay (NCI).
#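 Five compound concentrations were applied to cells in 96-well plates for 48 hours; endpoints were derived by simple linear interpolation of the resulting dose-response curve. TGI: concentration producing complete growth inhibition.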 Where a SMILES comes first, the peptide text is derived from it. [ ]: non-standard residue; d: D form. The star is where a group is joined. ξ: configuration not given here. ξNMeF = CNC(Cc1ccccc1)C(=O)O; NMeV = CN[C@H](C(=O)O)C(C)C; Boc = CC(C)(C)OC(=O)*; OBn = c1ccc(CO*)cc1
# Columns and labels:
# Assay in all cases: inhibition of tumour cell growth, NCI panel, 48 h
# [1] = system: ACHN renal
# [2] = system: HOP-62 NSCLC
# [3] = system: K-562 leukemia
# [4] = system: KM12 colon
# [5] = system: LOX IMVI melanoma
# [6] = system: MDA-N
# [7] = system: NCI-H23 lung
# [8] = system: OVCAR-5 ovarian
# [9] = system: RPMI-8226 leukemia
# [10] = system: SK-OV-3 ovarian
# [11] = system: U251 CNS
# [12] = system: NCI-H460 lung
# [13] = system: SR leukemia
Compound,TGI [1],TGI [2],TGI [3],TGI [4],TGI [5],TGI [6],TGI [7],TGI [8],TGI [9],TGI [10],TGI [11],TGI [12],TGI [13]
C=C(C)[C@H]1CC[C@@]23O[C@@H]2[C@@H](C[C@@]2(C)CC(=O)[C@H](CC(=O)C1)O2)OC(=O)[C@@]12CC[C@H](C(=C)C)CC(=O)C[C@H]4O[C@](C)(CC4=O)C[C@@H](OC3=O)[C@@H]1O2,> 100 µM,> 100 µM,> 100 µM,> 100 µM,> 100 µM,> 100 µM,> 100 µM,> 100 µM,> 100 µM,> 100 µM,> 100 µM,,
C=C(Cl)/C(=C\Cl)CCC(Cl)C(C)C (stereo unspecified) (tested in a mixture with another compound),30.4 µM,32.6 µM,> 100 µM,27.6 µM,3.67 µM,30.4 µM,28.2 µM,34.8 µM,,44.5 µM,30.1 µM,32.9 µM,> 100 µM
CCCCCCCCOC(=O)C12Oc3ccc(-c4ccc5c(c4O)C(O)=C4C(=O)CC(C)C(O)C4(C(=O)OCCCCCCCC)O5)c(O)c3C(O)=C1C(=O)CC(C)C2O (stereo unspecified),25.5 µM,,17.4 µM,> 100 µM,> 100 µM,> 100 µM,31.5 µM,96.2 µM,,> 100 µM,27.5 µM,> 100 µM,20.3 µM
COC(=O)C1(C(=O)OC)N=C(C)OC1c1ccccc1O (stereo unspecified),> 100 µM,> 100 µM,> 100 µM,> 100 µM,> 100 µM,,> 100 µM,> 100 µM,> 100 µM,> 100 µM,> 100 µM,> 100 µM,> 100 µM
C=C1CC[C@@H]2C13[C@@H]1[C@H](CC(=O)[C@@]23C)C1(C)C (stereo partly specified),> 100 µM,> 100 µM,> 100 µM,> 100 µM,> 100 µM,,> 100 µM,> 100 µM,> 100 µM,> 100 µM,> 100 µM,> 100 µM,> 100 µM
CCCCN=NNc1cn(C2OC(CO)C(O)C2O)c(=O)[nH]c1=O (stereo unspecified),> 100 µM,> 100 µM,,> 100 µM,> 100 µM,> 100 µM,> 100 µM,> 100 µM,,> 100 µM,,> 100 µM,> 100 µM
CCN(CC)CCNc1ccc2ncn3c4ccc(OC)cc4c(=O)c1c23,19 µM,20.3 µM,22.7 µM,7.68 µM,4.68 µM,19.6 µM,18.1 µM,24 µM,,23.8 µM,5.31 µM,5.52 µM,> 22.7 µM
CC(C)[C@@H](C(=O)N(C)[C@H](C(=O)N1CCC[C@H]1C(=O)OCc1ccccc1)C(C)C)N(C)C(=O)C(Cc1ccccc1)N(C)C(=O)[C@H](NC(=O)OC(C)(C)C)C(C)C (stereo partly specified) (Boc-[dV][ξNMeF][NMeV][NMeV]P-OBn),> 100 µM,> 31.6 µM,> 31.6 µM,,> 31.6 µM,,> 100 µM,> 31.6 µM,> 31.6 µM,> 31.6 µM,> 31.6 µM,> 31.6 µM,> 31.6 µM
N#Cc1c(Cl)cc(C#N)n2c1nc1ccccc12,28.7 µM,44.1 µM,21.1 µM,23.2 µM,7.02 µM,22.7 µM,26.8 µM,30.3 µM,17.2 µM,51.3 µM,36 µM,35.4 µM,
O=C(O)CCC(NC(=O)c1ccc(Nc2cnc3cc(C(F)(F)F)ccc3n2)cc1)C(=O)O (stereo unspecified),,> 100 µM,> 100 µM,> 100 µM,> 100 µM,,> 100 µM,> 100 µM,> 100 µM,> 100 µM,> 100 µM,> 100 µM,
C/C(=C\COP(=O)(O)OP(=O)(O)O)CCCCCCOCc1ccccc1,> 100 µM,> 100 µM,> 100 µM,> 100 µM,> 100 µM,,> 100 µM,> 100 µM,> 100 µM,> 100 µM,> 100 µM,> 100 µM,> 100 µM
Cc1ccc(Sc2ccccc2C23OC(C)(C4C(=O)N(c5ccccc5)C(=O)C42)N(C)C3=O)cc1 (stereo unspecified),> 100 µM,,> 100 µM,> 100 µM,> 100 µM,> 100 µM,> 100 µM,> 100 µM,,> 100 µM,> 100 µM,> 100 µM,> 100 µM
COc1ccc2c(c1)CCc1c-2[nH]c2cc3c(cc2c1=O)OCO3,> 100 µM,> 100 µM,> 100 µM,> 100 µM,> 100 µM,,> 100 µM,,> 100 µM,> 100 µM,> 100 µM,> 100 µM,> 100 µM
C=C1CC(OC)(C(OC)C(=O)N[C@H]2OCO[C@H]3C2O[C@H](C[C@@H](COC)OC)C(C)(C)C3OC)O[C@H](C)[C@@H]1C (stereo partly specified),,8.46 µM,3.38 µM,> 47 µM,> 47 µM,,6.68 µM,4 µM,0.917 µM,8.12 µM,4.13 µM,5.96 µM,
O=C(NN1C(=O)CS(=O)(=O)C1c1ccc(Cl)c(Cl)c1)c1ccncc1 (stereo unspecified),,> 100 µM,> 100 µM,> 100 µM,> 100 µM,,> 100 µM,> 100 µM,> 71.5 µM,> 100 µM,> 100 µM,> 100 µM,
O=C1Nc2ccc(Br)cc2/C1=N/S(=O)(=O)O,> 100 µM,> 100 µM,42.6 µM,> 100 µM,28 µM,26.6 µM,> 100 µM,79.3 µM,47.6 µM,> 100 µM,> 100 µM,> 100 µM,
CC(O)CNC(=O)Nc1c(C(F)(F)F)cc(-c2ccccc2)[nH]c1=O (stereo unspecified),> 100 µM,> 100 µM,> 100 µM,> 100 µM,> 100 µM,,> 100 µM,> 100 µM,,> 100 µM,> 100 µM,> 100 µM,
Nc1nc(SCC(=O)c2ccccc2)c2[nH]cnc2n1,> 100 µM,> 100 µM,> 100 µM,> 100 µM,> 100 µM,,> 100 µM,> 100 µM,> 100 µM,> 100 µM,> 100 µM,> 100 µM,> 100 µM
